According to patent publication US20060288450A1, “Plant N-acylethanolamine binding proteins” (Samuel Roberts Noble Foundation, priority 2004, published 2006):

Legend:
[1] = system: membrane-associated NAE-binding activities; conditions: cited from earlier work; for challenge of [3H]NAE 14:0 binding by CB receptor antagonist: plant membranes
[2] = system: NAE binding protein (At1g26440); test: [3H]NAE 14:0 radioligand binding to recombinant At1g26440 protein expressed in E. coli; parameters: species or system Arabidopsis thaliana
Procedure: FIG. 4 Full length cDNAs synthesized through RT-PCR on Arabidopsis total RNA using gene specific primers to At1g26440 were cloned into pTrc His2 expression vector and the recombinant protein over expressed in E. coli Top10 competent cells (Invitrogen, Cat. No. K4400-01 and K4400-40). Positive clones selected on amp-glucose agar plates were analyzed for producing NAE 14:0 binding protein by using [^3H]NAE 14:0 binding assay (Tripathy et al., 2003). Bacterial lysate (L) prepared from pelleted positive clones induced with IPTG for recombinant protein production was used as the protein source. T10-1, T-10-2, T10-3: Positive clones carrying A. thaliana NAE-binding protein (At1g26440); T10-4: Negative clone carrying the gene sequence in reverse orientation; T10-0: Control Top10 cells. Binding assay was performed on cell lysate (L) and the affinity purified (ProBond purification system, Invitrogen) recombinant protein (P) fraction. Histograms represent binding activity (from two studies with four replicates each).
FIG. 5 Saturation binding of [^3H]NAE 14:0 to a candidate NAE binding protein (At1g26440) expressed in E. coli Top10 cell lysate. The candidate NAE binding protein was a full-length, in-frame cDNA. […]
(§1) [^3H]NAE 14:0 radioligand was synthesized from [9,10-^3H(N)]myristic acid (PerkinElmer Life Sciences, Boston) in a modified two step reaction (Hillard et al., 1995; Devane et al., 1992). […] The [^3H]NAE 14:0 formed was further purified and quantified by separating on thin layer chromatography (TLC) and radiometric scanning respectively (Tripathy et al., 2003).
Binding activity of [^3H]NAE 14:0 was carried out with DDM-solubilized microsomes from Arabidopsis (ecotype, columbia) leaves (Tripathy et al., 2003b) or recombinant protein produced in E. coli and solubilized in DDM. […] Unbound ligands were washed off with ice cold binding buffer (75 mM potassium-phosphate buffer, pH 7.2, 300 mM sucrose, 7.5 mM KCl, 0.75 mM EDTA, 0.75 mM EGTA, 0.5 mM ascorbate, 5 mM DTT, and 1.5% BSA) under vacuum and frozen filters were excised into scintillation cocktail for radioactivity estimation.

[3] = system: defense gene (Phenylalanine-ammonia lyase) expression; conditions: coadministration, leaves; cited from earlier work
[4] = system: Arabidopsis microsomal protein; test: [3H]NAE 14:0 radioligand binding to Arabidopsis leaf microsomes; parameters: species or system Arabidopsis thaliana; conditions: 5 nM SR144528, [3H]NAE 14:0 50 nM
Procedure: FIG. 1. Analysis of specific binding of [^3H]NAE 14:0 to DDM solubilized (0.2 mM) microsomes (25 μg of protein) isolated from A. thaliana (ecotype Columbia) leaves (150,000×g) with a concentration ranging from 10 to 80 nM. Specific binding was determined by subtracting nonspecific binding (binding in the presence of 1,500× nonradioactive NAE 14:0) values from total radioligand binding values in duplicate assays. Binding affinity and Bmax of [^3H]NAE 14:0 was estimated by fitting the saturation binding data to nonlinear regression analysis for a one-site binding equation using Prism 3.0, Graphpad software, San Diego.
FIG. 7 Microsomes from A. thaliana leaves and affinity purified (P) protein from T10-1 cell lysate were incubated with [^3H]NAE 14:0 (50 nM) in the presence and absence of CB receptor antagonist SR144528 (5 nM) to compare the influence on [3H]NAE binding. Values represent means of triplicate assays from an individual experiment reproduced twice.
as §1, with “1992). In step one, acylchloride is prepared from [3 H]” for “1992).”, “2003). […]” for “2003).”

Cc1c(C(=O)NN2CCOCC2)nn(-c2ccc(Cl)cc2Cl)c1-c1ccc(I)cc1 [AM 281]
challenge of [3H]NAE 14:0 binding by CB receptor antagonist [1]: potently challenged

CCCCCCCCCCCCCC(=O)NCCO [NAE 14:0]
affinity of recombinant protein for NAE 14:0 (saturation binding) ([2]; recombinant At1g26440 expressed in E. coli, DDM solubilized): high affinity | binding activity of [3H]NAE 14:0 (affinity) ([1]; membrane-associated, saturable, in lower nanomolar range): high affinity

SR144528
effect on NAE-regulated defense gene expression [3]: blocked | effect on NAE14:0 binding [4]: diminished | effect on NAE14:0 binding ([2]; 5 nM SR144528, [3H]NAE 14:0 50 nM, recombinant At1g26440 gene product): diminished | effect on NAE specific binding ([2]; higher concentrations of SR144528 (above 5 nM), preparation not specified): eliminated | challenge of [3H]NAE 14:0 binding by CB receptor antagonist [1]: potently challenged
